Source: patent US4542145A, “Substituted N-[(1H-1,2,4-triazol-1-yl)-alkyl]heteroarylcarboxamides” (American Cyanamid Company, priority 1984, dated 1985)
Counter-ions that a name gives are not always drawn.

Legend:
thromboxane synthetase = biological target: T1, thromboxane synthetase (Rattus norvegicus, UniProt P49430); assay: Inhibition of thromboxane (TXB2) formation in washed SHR platelets, RIA; type: cell-based, spontaneously hypertensive rats (Okamoto-Aoki); conditions: 10 min, Dose 10^-4 (unit inferred), about 10 minutes at about 37° C.
T1 construct: The platelets were isolated by centrifuging the PRP; endogenous in cells; host or cells: washed platelets from arterial blood of Okamoto-Aoki spontaneously hypertensive rats (Taconic Farms)
T1 sequence (P49430 1-533): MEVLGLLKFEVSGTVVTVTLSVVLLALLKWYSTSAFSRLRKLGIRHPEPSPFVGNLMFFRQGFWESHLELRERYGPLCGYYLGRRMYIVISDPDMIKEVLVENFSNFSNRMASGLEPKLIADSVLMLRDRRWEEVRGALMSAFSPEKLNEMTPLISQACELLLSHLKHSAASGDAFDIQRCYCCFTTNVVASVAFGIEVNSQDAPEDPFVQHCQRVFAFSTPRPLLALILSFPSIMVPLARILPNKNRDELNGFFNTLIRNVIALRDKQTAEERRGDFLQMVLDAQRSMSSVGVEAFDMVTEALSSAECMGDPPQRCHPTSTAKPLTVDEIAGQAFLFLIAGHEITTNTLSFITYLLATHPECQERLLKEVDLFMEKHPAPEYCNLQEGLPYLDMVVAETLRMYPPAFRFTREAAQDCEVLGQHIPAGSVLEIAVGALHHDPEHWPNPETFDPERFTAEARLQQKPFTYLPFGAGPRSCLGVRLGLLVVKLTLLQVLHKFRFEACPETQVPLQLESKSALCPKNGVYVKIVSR
Description: Under urethan anesthesia, about 10 μl arterial blood was collected in approximately 1 ml. of about 3.2% sodium citrate in a polystyrene tube from Okamoto-Aoki spontaneously hypertensive rats (SHR) (Taconic Farms, Germantown, N.Y.) between 19 and 24 weeks in age. The blood was diluted with about 3 ml of cold saline and centrifuged at room temperature for about 15 minutes at 460 xg. The platelet rich plasma (PRP) was separated. The platelets were isolated by centrifuging the PRP for about 10 minutes at 1060 xg and were washed in about 4 ml of cold oxygenated Krebs phosphate buffer, about pH 7.4. The chilled platelets recovered from centrifuging at 800 xg for about 10 minutes were resuspended in oxygenated Krebs phosphate buffer and diluted to contain 4.5-6.0×10^4 platelets/μl.
The inhibition of thromboxane (TX) formation was studied by determining the concentration of thromboxane B2 (TXB2), the stable hydrolysis product of TXA2. Assay samples, prepared on ice, contained about 200 μl platelet suspension, about 50 μl saline and about 50 μl vehicle or drug under study. The samples were incubated for about 10 minutes at about 37° C. in a metabolic shaker. The reaction was terminated by immersing the tubes in an ice bath and adding about 50 μl of approximately 0.5 M citric acid. The samples were centrifuged for about 10 minutes in a refrigerated centrifuge and the supernatants thus obtained were decanted and stored at about-20° C. The TXB2 content for each sample was determined by a direct radioimmunoassay (RIA) utilizing a TXB2 specific RIA kit purchased from New England Nuclear, Boston, Mass. and expressed as pg TXB2 formed minute^-1 sample^-1, from which the percent inhibition of TXB2 formation was calculated.

[1] = system: spontaneously hypertensive rats; assay: Hypotensive activity in spontaneously hypertensive rats (mean arterial blood pressure); type: in vivo, spontaneously hypertensive rats (Okamoto strain); conditions: oral gavage, about 100 mg/kg or less, two doses 24 h apart, 0.9% NaCl loading with first; about 28 hours after initial dose; SHR average MABP 170±1.5 mm of mercury; (No. of rats) in parentheses
Description: The novel compounds of the present invention are active hypotensive agents and were tested for hypotensive activity by the method of P. S. Chan and D. Poorvin, Clinical and Experimental Hypertension, 1 (6), 817-830 (1979). Male, 16 week old, spontaneously hypertensive rats of the Okamoto strain, from Taconic Farms, Germantown, N.Y., having an average mean arterial blood pressure of 170±1.5 mm of mercury are used in the test. One to 3 rats are used per test compound. A rat is dosed by gavage with a test compound, suspended in approximately 2% pre-boiled starch at a concentration of about 50 mg/ml, at a dose of about 100 mg/kg of body weight or less, with approximately 0.9% sodium chloride loading at a dose of about 25 ml/kg of body weight. A second identical dose of the test compound, without sodium chloride loading is given about 24 hours later. At about 28 hours after the initial dose the mean arterial blood pressure is measured by the method of Chan and Poorvin vide supra. The procedure is repeated in a second and third rat when necessary.

Structure (SMILES) | inhibition at 100 µM (thromboxane synthetase) | MABP (mean arterial blood pressure) [1]
O=C(NCCn1cncn1)c1sc2ccccc2c1Cl [3-Chloro-N-[2-(1H-1,2,4-triazol-1-yl)ethyl]-benzo[b]thiophene-2-carboxamide] | 90% | –
O=C(NCCCCn1cncn1)c1sc2ccccc2c1Cl [3-Chloro-N-[4-(1H-1,2,4-triazol-1-yl)-butyl]benzo[b]thiophene-2-carboxamide] | 90% | 119 m Hg
O=C(NCCCn1cncn1)c1sc2ccccc2c1Cl [3-chloro-N--[3-(1H--1,2,4-triazol-1-yl)propyl]-benzo[b]thiophene-2-carboxamide] | 60% | 137 m Hg
O=C(NCCCn1cncn1)c1cc(Br)c(Br)s1 [4,5-dibromo-N--[3-(1H--1,2,4-triazol-1-yl)-propyl]-2-thiophene-carboxamide] | 86% | 137 m Hg
O=C(NCCCn1cncn1)c1ccc([N+](=O)[O-])o1 [5-Nitro-N-[3-(1H-1,2,4-triazol-y)propyl]-2-furancarboxamide] | 70% | 132 m Hg
O=C(NCCCn1cncn1)c1ccc(Br)o1 [5-bromo-N--[3-(1H--1,2,4-triazol-1-yl)propyl]-2-furancarboxamide] | 61% | 107 m Hg
O=C(NCCCn1cncn1)c1ccc(Cl)s1 [5-chloro-N--[3-(1H--1,2,4-triazol-1-yl)propyl]-2-thiophenecarboxamide] | 64% | 135 m Hg
Cc1ccc(C(=O)NCCCn2cncn2)s1 [5-methyl-N--[3-(1H--1,2,4-triazol-1-yl)propyl]-2-thiophenecarboxamide] | 56% | –
O=C(NCCCn1cncn1)c1cc2ccccc2o1 [N--[3-(1H--1,2,4-triazol-1-yl)propyl]-2-benzo-furancarboxamide] | 84% | 135 m Hg
O=C(NCCCn1cncn1)c1ccco1 [N--[3-(1H--1,2,4-triazol-1-yl)propyl]-2-furancarboxamide, fumarate] | – | 116 m Hg
O=C(NCCCn1cncn1)c1cccs1 [N--[3-(1H--1,2,4-triazol-1-yl)propyl]-2-thio-phenecarboxamide] | 30% | 130 m Hg
O=C(C=Cc1cccs1)NCCCn1cncn1 [N--[3-(1H--1,2,4-triazol-1-yl)propyl]-3-(2-thien-yl)-2-propenamide] | 68% | –
O=C(NCCCn1cncn1)c1ccoc1 [N--[3-(1H--1,2,4-triazol-1-yl)propyl]-3-furan-carboxamide] | 55% | 135 m Hg
O=C(NCCCn1cncn1)c1ccco1 [N-[3-(1H-1,2,4-Triazol-1-yl)propyl]-2-furancarboxamide] | 65% | –
